This data set can be described thus: activity coefficient (dimensionless); of the first substance listed, at infinite dilution; xn = mol fraction of the nth substance listed. The note with it: 101 kPa, Liquid, Chromatography, x1 = 0.

± gives the expanded uncertainty stated by the source.

On to `CCCCCC` [hexane] + CC1(C)[C@@H]2CC[C@@]1(CS(=O)(=O)[O-])C(=O)C2.CCCCCCCCCCCCCC[N+](CCCCCC)(CCCCCC)CCCCCC, for which the activity coefficient is, setting by setting: (323.15 K) 1.05 ± 0.07; (333.15 K) 1.54 ± 0.1; (343.15 K) 1.81 ± 0.12.

For `ClC(Cl)Cl` [trichloromethane] + CC1(C)[C@@H]2CC[C@@]1(CS(=O)(=O)[O-])C(=O)C2.CCCCCCCCCCCCCC[N+](CCCCCC)(CCCCCC)CCCCCC, the activity coefficient is, setting by setting: (323.15 K) 0.05; (333.15 K) 0.09 ± 0.03; (343.15 K) 0.15 ± 0.03.

In the case of `C1CCCCC1` [cyclohexane] + CC1(C)[C@@H]2CC[C@@]1(CS(=O)(=O)[O-])C(=O)C2.CCCCCCCCCCCCCC[N+](CCCCCC)(CCCCCC)CCCCCC, the activity coefficient came out at 0.69 ± 0.05 (323.15 K), 0.95 ± 0.06 (333.15 K) and 1.24 ± 0.08 (343.15 K).

With `ClCCl` [dichloromethane] + CC1(C)[C@@H]2CC[C@@]1(CS(=O)(=O)[O-])C(=O)C2.CCCCCCCCCCCCCC[N+](CCCCCC)(CCCCCC)CCCCCC, the activity coefficient is, setting by setting: (323.15 K) 0.09 ± 0.03; (333.15 K) 0.15 ± 0.03; (343.15 K) 0.22 ± 0.03.

Consider `CCCCCCCCCCC` [undecane] + CC1(C)[C@@H]2CC[C@@]1(CS(=O)(=O)[O-])C(=O)C2.CCCCCCCCCCCCCC[N+](CCCCCC)(CCCCCC)CCCCCC, for which the activity coefficient (323.15 K) stood at 1.62 ± 0.11, the activity coefficient (333.15 K) worked out at 2.84 ± 0.19 and the activity coefficient (343.15 K) was 4.32 ± 0.29.

`CCCCCCC` [heptane] + CC1(C)[C@@H]2CC[C@@]1(CS(=O)(=O)[O-])C(=O)C2.CCCCCCCCCCCCCC[N+](CCCCCC)(CCCCCC)CCCCCC: the activity coefficient by setting is: (323.15 K) 1.14 ± 0.07; (333.15 K) 1.57 ± 0.1; (343.15 K) 2.14 ± 0.15.

`Cc1ccccc1` [toluene] + CCCCCCCCCCCCCC[N+](CCCCCC)(CCCCCC)CCCCCC.C[C@H](O)C(=O)[O-]: the activity coefficient runs as follows: (323.15 K) 0.46 ± 0.04; (353.15 K) 0.46 ± 0.04; (373.15 K) 0.48 ± 0.04.

With `CC1CCCC1` [methylcyclopentane] + CCCCCCCCCCCCCC[N+](CCCCCC)(CCCCCC)CCCCCC.C[C@H](O)C(=O)[O-], the activity coefficient (323.15 K) is 0.82 ± 0.05, the activity coefficient (353.15 K) came out at 0.78 ± 0.05 and the activity coefficient (373.15 K) is 0.77 ± 0.05.

With `CC(C)OC(C)C` [diisopropyl ether] + CCCCCCCCCCCCCC[N+](CCCCCC)(CCCCCC)CCCCCC.C[C@H](O)C(=O)[O-], the activity coefficient is, setting by setting: (323.15 K) 1.13 ± 0.07; (353.15 K) 1.08 ± 0.07; (373.15 K) 1.06 ± 0.07.

With `CCC[N+](=O)[O-]` [1-nitropropane] + CCCCCCCCCCCCCC[N+](CCCCCC)(CCCCCC)CCCCCC.C[C@H](O)C(=O)[O-], the activity coefficient (323.15 K) was 0.33 ± 0.03, the activity coefficient (353.15 K) was determined as 0.34 ± 0.03 and the activity coefficient (373.15 K) was 0.36 ± 0.03.

As for `CCCCCCCC` [octane] + CCCCCCCCCCCCCC[N+](CCCCCC)(CCCCCC)CCCCCC.C[C@H](O)C(=O)[O-], the activity coefficient (323.15 K) was found to be 1.37 ± 0.09, the activity coefficient (353.15 K) was determined as 1.31 ± 0.09 and the activity coefficient (373.15 K) was determined as 1.29 ± 0.08.

In the case of `CCCCCCCCC` [nonane] + CCCCCCCCCCCCCC[N+](CCCCCC)(CCCCCC)CCCCCC.C[C@H](O)C(=O)[O-], the activity coefficient (323.15 K) is 1.67 ± 0.11, the activity coefficient (353.15 K) worked out at 1.59 ± 0.11 and the activity coefficient (373.15 K) was 1.51 ± 0.1.

Regarding `CC1CCCCC1` [methylcyclohexane] + CCCCCCCCCCCCCC[N+](CCCCCC)(CCCCCC)CCCCCC.C[C@H](O)C(=O)[O-], the activity coefficient reads like this: (323.15 K) 0.86 ± 0.06; (353.15 K) 0.82 ± 0.05; (373.15 K) 0.81 ± 0.05.

On to `CC(C)CC(C)(C)C` [2,2,4-trimethylpentane] + CCCCCCCCCCCCCC[N+](CCCCCC)(CCCCCC)CCCCCC.C[C@H](O)C(=O)[O-], for which the activity coefficient came out at 1.33 ± 0.09 (323.15 K), 1.27 ± 0.08 (353.15 K) and 1.25 ± 0.08 (373.15 K).

For `CCOCC` [diethyl ether] + CC1(C)[C@@H]2CC[C@@]1(CS(=O)(=O)[O-])C(=O)C2.CCCCCCCCCCCCCC[N+](CCCCCC)(CCCCCC)CCCCCC, the activity coefficient reads like this: (323.15 K) 0.73 ± 0.05; (333.15 K) 0.96 ± 0.06; (343.15 K) 1.14 ± 0.07.

Consider `CCC[N+](=O)[O-]` [1-nitropropane] + CC1(C)[C@@H]2CC[C@@]1(CS(=O)(=O)[O-])C(=O)C2.CCCCCCCCCCCCCC[N+](CCCCCC)(CCCCCC)CCCCCC, for which the activity coefficient reads like this: (323.15 K) 0.35 ± 0.03; (333.15 K) 0.55 ± 0.04; (343.15 K) 0.82 ± 0.05.

As for `CCc1ccccc1` [ethylbenzene] + CC1(C)[C@@H]2CC[C@@]1(CS(=O)(=O)[O-])C(=O)C2.CCCCCCCCCCCCCC[N+](CCCCCC)(CCCCCC)CCCCCC, the activity coefficient (323.15 K) stood at 0.49 ± 0.04, the activity coefficient (333.15 K) amounted to 0.76 ± 0.05 and the activity coefficient (343.15 K) is 1.11 ± 0.07.

Regarding `C1CCCCC1` [cyclohexane] + CCCCCCCCCCCCCC[N+](CCCCCC)(CCCCCC)CCCCCC.C[C@H](O)C(=O)[O-], the activity coefficient reads like this: (323.15 K) 0.77 ± 0.05; (353.15 K) 0.73 ± 0.05; (373.15 K) 0.71 ± 0.05.

For the compound `CCCC(C)=O` [pentan-2-one] + CCCCCCCCCCCCCC[N+](CCCCCC)(CCCCCC)CCCCCC.C[C@H](O)C(=O)[O-], the activity coefficient was 0.6 ± 0.1 (323.15 K), 0.59 ± 0.04 (353.15 K) and 0.59 ± 0.04 (373.15 K).

Regarding `C#CCCCCC` [1-heptyne] + CC1(C)[C@@H]2CC[C@@]1(CS(=O)(=O)[O-])C(=O)C2.CCCCCCCCCCCCCC[N+](CCCCCC)(CCCCCC)CCCCCC, the activity coefficient by setting is: (323.15 K) 0.49 ± 0.04; (333.15 K) 0.78 ± 0.05; (343.15 K) 1.17 ± 0.07.

Turning to `CCCCCCCC` [octane] + CC1(C)[C@@H]2CC[C@@]1(CS(=O)(=O)[O-])C(=O)C2.CCCCCCCCCCCCCC[N+](CCCCCC)(CCCCCC)CCCCCC, the activity coefficient runs as follows: (323.15 K) 1.24 ± 0.08; (333.15 K) 1.81 ± 0.12; (343.15 K) 2.53 ± 0.17.

With `C=CCCCC` [hex-1-ene] + CC1(C)[C@@H]2CC[C@@]1(CS(=O)(=O)[O-])C(=O)C2.CCCCCCCCCCCCCC[N+](CCCCCC)(CCCCCC)CCCCCC, the activity coefficient runs as follows: (323.15 K) 0.85 ± 0.05; (333.15 K) 1.13 ± 0.07; (343.15 K) 1.75 ± 0.12.

For `C#CCCCC` [1-hexyne] + CC1(C)[C@@H]2CC[C@@]1(CS(=O)(=O)[O-])C(=O)C2.CCCCCCCCCCCCCC[N+](CCCCCC)(CCCCCC)CCCCCC, the activity coefficient runs as follows: (323.15 K) 0.46 ± 0.04; (333.15 K) 0.69 ± 0.05; (343.15 K) 0.95 ± 0.06.

In the case of `CO` [methanol] + CCCCCCCCCCCCCC[N+](CCCCCC)(CCCCCC)CCCCCC.C[C@H](O)C(=O)[O-], the activity coefficient came out at 0.03 (323.15 K), 0.03 (353.15 K) and 0.03 (373.15 K).

On to `ClC(Cl)(Cl)Cl` [tetrachloromethane] + CC1(C)[C@@H]2CC[C@@]1(CS(=O)(=O)[O-])C(=O)C2.CCCCCCCCCCCCCC[N+](CCCCCC)(CCCCCC)CCCCCC, for which the activity coefficient reads like this: (323.15 K) 0.35 ± 0.03; (333.15 K) 0.51 ± 0.04; (343.15 K) 0.75 ± 0.05.

With `CC(C)O` [propan-2-ol] + CC1(C)[C@@H]2CC[C@@]1(CS(=O)(=O)[O-])C(=O)C2.CCCCCCCCCCCCCC[N+](CCCCCC)(CCCCCC)CCCCCC, the activity coefficient runs as follows: (323.15 K) 0.12 ± 0.03; (333.15 K) 0.2; (343.15 K) 0.32 ± 0.03.

The record behind these values is the NIST ThermoML archive (doi:10.1021/je500050p).
